PMC8533089, “Characteristics of Neurokinin-3 Receptor and Its Binding Sites by Mutational Analysis” (Biology, 2021)
“Also recorded” adds a separate entry of the source. Read-outs that look alike come from different tables or passages of the source.

Experiments:
[1] = test system: testicular cell composition; assay: 14-day in vivo experiment: testicular histology and cell composition; design: species or system adult male tilapia (Oreochromis niloticus)
Protocol: (§1) Adult male tilapia (BW 87.29 ± 26.1 g; gonado-somatic index (GSI 0.21% ± 0.36%) were IP injected with SB-222200 (500 µg/kg BW in 25% DMSO) and saline with 25% DMSO as a control every 48 h during a 14-day period. Blood was sampled every 48 h. Milt volume was collected from 6 fish from each group 7 and 14 days after the first injection, generally according to [55].
Testes were sampled for histology at 14 days, and testicular cell composition was analyzed. Testes were fixed for 24 h, after which a portion was removed (~5 mm in length) from the center of the larger right testicular lobe for histological processing. Samples were rinsed in distilled water, dehydrated in an alcohol series, cleared in xylene, embedded in paraffin, serially sectioned at 4 μm in the transverse plane, and stained with hematoxylin and eosin using standard histological techniques. Photomicrographs were then taken (4× objective) of 3 randomly chosen sections from each individual for analysis of testicular cell composition. Randomly generated points (n = 50) were overlaid on each photograph (CPCe software), and the cell type underneath each crosshair point was identified. A minimum of 50 points was necessary to adequately determine the percentage of cell types. Cell types were identified based on previous descriptions in this and other related teleost species reviewed in [57], and the following cells were quantified: spermatogonia, spermatids, and spermatozoa (mature sperm). Each cell type was then expressed as a percentage of the total, and averaged across the 3 sections to obtain a mean for each individual.

[2] = target: tiTac3Ra (Oreochromis niloticus, UniProt A0A075QPN8); assay: CRE-Luc antagonist assay, wild-type receptor, COS-7; type: cell-based, tilapia (Oreochromis niloticus); settings: for IC50: antagonist 0.001–1000 μM added 10 min before peptide
Chain of tiTac3Ra (A0A075QPN8 entry or part of it): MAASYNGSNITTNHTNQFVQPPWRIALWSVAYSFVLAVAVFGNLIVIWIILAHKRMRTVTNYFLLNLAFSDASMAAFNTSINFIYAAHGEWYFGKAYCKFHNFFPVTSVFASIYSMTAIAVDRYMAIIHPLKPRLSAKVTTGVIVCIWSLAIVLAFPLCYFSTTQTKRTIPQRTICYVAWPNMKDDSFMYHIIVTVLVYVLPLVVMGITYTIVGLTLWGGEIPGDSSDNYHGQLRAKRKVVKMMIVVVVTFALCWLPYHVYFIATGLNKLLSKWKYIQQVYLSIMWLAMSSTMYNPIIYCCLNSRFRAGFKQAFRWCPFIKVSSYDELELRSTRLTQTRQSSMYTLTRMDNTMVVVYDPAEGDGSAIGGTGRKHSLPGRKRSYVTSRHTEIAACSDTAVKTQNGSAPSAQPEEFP
Protocol: In order to study the signaling pathways of the mutant tiTac3Ra, the entire coding regions of tiTac3Ra (GenBank accession no. KF471674), and both of the mutant receptors were inserted into pcDNA3.1 (Invitrogen, Massachusetts, United States). We used a sensitive luciferase (LUC) reporter gene assay. […] Transient transfection, cell procedures and stimulation protocols followed the procedures previously described. Briefly, 3 μg of each construct, together with 3 μg of a luciferase reporter plasmid were transiently transfected into COS-7 cells (American Type Culture Collection, Manassas, VA, USA). Forty-eight hours after transfection, cells transfected with Tac3Ra plasmid fused with GFP were applied with an Hoechst dye (Invitrogen, Massachusetts, United States; diluted 1:1000) in order to mark nuclei in the culture for transfection analysis.
Non-peptide molecules, SB-222200 (Sigma, Merck, Darmstadt, Germany) and Osanetant (Axon Medchem, Reston, VA, USA), known to antagonize mammalian NK3R [49] were studied for their ability to antagonize tiTac3Ra, which was activated with a fixed dose of the native ligands (10 nM tiNKB or tiNKF), combined with increasing doses of the antagonists (0.001–1000 μM). The antagonists were added 10 min prior to the addition of the peptides. IC50 values were calculated from concentration response curves by means of computerized nonlinear curve-fitting with Prism version 9 software (GraphPad, San Diego, CA, USA). All experiments were repeated at least 3 times using cells from independent transfections, each performed in triplicate.
NKB antagonists, SB-222200 (Figure 7A) and Osanetant (Figure 7B) were added in increasing concentrations (0.001–1000 μM) to transfected COS-7 that expressed tiTac3Ra. Ten minutes after the induction of the antagonists, the ligand, tiNKB or tiNKF (10 nM) was added to the media.

[3] = test system: LH plasma levels; assay: In vivo effect of NKB antagonists on LH plasma levels (ELISA); design: species or system adult male tilapia (Oreochromis niloticus)
Protocol: (§2) The levels of FSH, LH and GH in the plasma were measured by specific competitive enzyme-linked immunosorbent assay (ELISA), developed for tilapia, based on recombinant gonadotropins or GH that were created by using the yeast Pichia pastoris. For the ELISAs, we used primary antibody antisera against GH [51], FSHβ [52], or against rtLHβ [53], and rtFSHβα [52], rtLHβ [53] or tiGH for the standard curves. Sensitivity for the plasma measurements were 15.84 pg/mL for LH, 0.24 pg/mL for FSH and 30.0 pg/mL for GH. The inter-assay coefficient of variation (CV) was 14.8, 12.5, and 13.0%, while intra-assay CV was 7.2, 8.0, and 8.0% for LH, FSH and GH, respectively.
(§3) Adult male tilapia (BW 89.29 ± 32.93 g; gonado-somatic index (GSI) 0.24% ± 0.40%) were injected IP (intraperitoneal) with NKB antagonists, SB-222200 or Osanetant (100 µg/kg BW), and after 0.5 h, a second injection of sGnRHa (10 µg/kg BW) was added. Control groups were injected with sGnRHa ([DAla^6, Pro^9-Net]-mammalian GnRH; Bachem, Budendorf, Switzerland) 10 µg/kg BW) as a positive control. The fish were bled from the caudal blood vessels into heparinized syringes 0, 0.5, 2, 6 and 24 h after injection. This time course is according to standard protocols used previously to test the effect of GnRH on circulating levels of LH, FSH, and GH in tilapia. Blood samples were collected from the caudal vasculature and centrifuged (3200 rpm for 30 min at 4 °C) (Centrifuge: Fresco 17, Rotor: 75003424, Thermo Scientific™, Langenselbold Germany) to obtain plasma samples, which were stored at −20 °C until assayed. Three independent experiments were carried out for the in-vivo studies.

[4] = test system: milt volume; assay: 14-day in vivo experiment: milt volume / sperm production; design: species or system adult male tilapia (Oreochromis niloticus); settings: 500 µg/kg BW IP every 48 h; days 7 and 14; six fish per group; versus control
Protocol: as §1

[5] = test system: LH secretion; settings: OVX ewes, micro-implants in the ARC; cited from earlier work
Excerpt: The effect of NKB/NKF peptides on gonadotropin secretion in fish is already well established. The first indication that NKB is widely expressed in fish species and has a stimulatory reproductive effect was shown in zebrafish, goldfish, and tilapia. […] Osetanant re ...

[6] = test system: FSH plasma levels; assay: In vivo effect of NKB antagonists on FSH plasma levels (ELISA); design: species or system adult male tilapia (Oreochromis niloticus); settings: antagonist 100 µg/kg BW IP, sGnRHa 10 µg/kg BW after 0.5 h; n = 10
Protocol: as §2
as §3, with “Blood samples were collected from the caudal vasculature and centrifuged (3200 rpm for 30 min at 4 °C) (Centrifuge: Fresco 17, Rotor: 75003424, Thermo Scientific™, Langenselbold Germany) to obtain plasma samples, which were stored at −20 °C until assayed. Three independent experiments were carried out for the in-vivo studies.” left out

For `CC[C@H](NC(=O)c1c(C)c(-c2ccccc2)nc2ccccc12)c1ccccc1` [SB-222200], the number of spermatozoa ([1]; 500 µg/kg BW IP every 48 h, day 14) was “significantly reduced the number of spermatozoa”, the “other cells, % of cells” value ([1]; 500 µg/kg BW IP every 48 h, day 14, Figure 9E, *) was 48.38% and the “spermatid, % of cells” value ([1]; 500 µg/kg BW IP every 48 h, day 14, control 23.2%, significant) was 10%. The “spermatozoa, % of cells” value ([1]; 500 µg/kg BW IP every 48 h, day 14, control 23.78%, significant) was 6.63%, the “spermatogonia, % of cells” value ([1]; 500 µg/kg BW IP every 48 h, day 14, control 32.87%) was 35% and the “spermatogonia, count” value ([1]; day 14, Figure 9E) was 280. The “other cells, count” value ([1]; day 14, Figure 9E, *) was 387, the “spermatid, count” value ([1]; day 14, Figure 9E, *) was 80 and the “spermatozoa, count” value ([1]; day 14, Figure 9E, *) was 53. It also gave an IC50 ([2]; 10 nM tiNKB, COS-7, CRE-Luc, read-out: IC50 versus tiNKB) of 84.1 µM, an IC50 ([2]; 10 nM tiNKF, COS-7, CRE-Luc, read-out: IC50 versus tiNKF) of 37.1 µM and an Emax ([2]; COS-7, CRE-Luc, 10 nM tiNKB or tiNKF, read-out: luciferase activity reduced to % of maximal response) of 50%. The “maximum response rate compared with Osanetant” value ([2]; Figure 7C,D) was “higher maximum response rate than Osanetant”, the “inhibitory effect on Tac3Ra activation” value ([2]; in words) was “strong inhibitory effect” and the “reduction of receptor activity (in words)” value ([2]; restated in Discussion) was “reduced the receptor activity by half”. For the same compound, the LH plasma levels ([3]; 100 µg/kg BW IP, 2 h after injection, versus sGnRHa, n = 10) was “significantly lower”, the “LH levels in plasma, sole IP injection” value ([3]; Discussion) was “decrease in the LH levels in plasma” and the “LH release, combination with sGnRHa” value ([3]; antagonist 100 µg/kg BW IP, then sGnRHa 10 µg/kg BW after 0.5 h, n = 10) was “inhibitory effect on LH release, without any significant change when compared to the sGnRHa; also recorded: drop in LH release”. The “LH plasma levels (abstract)” value ([3]; two hours post intraperitoneal injection) was “decreased LH plasma levels”, the “sperm production (milt volume)” value [4] was “retained a low sperm production after 7 and 14 days compared to that of the control group” and the LH secretion [5] was “disrupted LH secretion”. For the same compound, the “FSH levels, 2 h post injection, combination with sGnRHa” value [6] was “increased FSH levels”.
